Experiments:
[1] = tested on: C57BL/6 mice given 3% DSS (acute colitis); experiment: DSS-induced acute colitis model; format: in vivo; settings: 3% DSS for 6 days, oral gavage
Source text: We examined whether oral administration of inulin gel loaded with an immune tolerizing drug can exert therapeutic efficacy against colitis. Mice were given 3% DSS in drinking water for 6 days to induce acute colitis. Starting day 0, mice were also orally gavaged with either PBS, an Ahr ligand, indole-3-aldehyde (IALD), or inulin gel formulated with IALD (inulin gel + IALD) (FIG. 5A).
Method: Six-week-old female C57BL/6 mice were acclimatized for 2 weeks before the start of the study. To induce colitis, mice were given 3% DSS (40 kDa; Alfa Aesar) supplemented in the drinking water for 6 days, followed by giving normal water. Inulin gel + IALD, IALD or PBS was orally gavaged into mice on predetermined days. The inulin gel + IALD was prepared by dissolving 300 mg of inulin from chicory (Sigma-Aldrich) in 0.9 ml deionized water and 0.1 ml IALD solution (50 mg/mL, DMSO). The inulin solution was thoroughly mixed with IALD solution by vortex and was heated to 70° C. for 5 min. The formulation was kept at room temperature for 12 h for gelation. The IALD was prepared similarly without adding the inulin. Bodyweight were measured daily over the experimental period. On day 9, mice were sacrificed, and the entire colon was excised. Colon length and the cecum weight was measured.

[2] = tested on: BABL/c mice sensitized with OVA/Alum (OVA allergy); format: in vivo; settings: after the 3rd OVA challenge; escalated dose OIT
Description: To simulate the widely used therapeutic plan in clinic, we next provided the escalated dose of OVA in OIT treatment (FIG. 2a).
Preparation and characterization of inulin gel, PE or OVA loaded inulin gel. For OVA-related study, 495 mg of inulin from chicory (Sigma-Aldrich) was dissolved in 1.35 mL PBS and heated for 5 min. OVA (Sigma-Aldrich) was added right after cool-down of inulin. For PE-related study, 300 mg of inulin from chicory (Sigma-Aldrich) was dissolved in 0.9 mL deionized water, after heating for 5 min, 8 mg of PE was added right after cool-down. Samples were kept at 4° C. for 24 h. […] The content of protein in peanut extraction (around 20%) was determined by BCA assay.
In vivo oral sensitization, immunotherapy, and challenge. […] Body weight before all times of i.g. challenge were recorded, while the body temperature in the last time of i.g. challenge was measured. […] On day 73, mice were i.p. injected with 125 µg PE and the body temperature was recorded at preset times via rectal temperature probe.
Assessment of hypersensitivity reactions and diarrhea. Anaphylactic symptoms were evaluated between 30 to 50 minutes after i.p. challenge of PE (125 µg/dose) or i.g. challenge of OVA (50 mg/dose). […] For OVA study, mice with profuse liquid stool up to 1 h after i.g. challenge were recorded as diarrhea-positive animals. […]
Intestinal mast cell quantification. […]

| Molecule | bodyweight loss ([1]; daily bodyweight for 9 d) | shortening of the colon length ([1]; day 9) | death after OVA challenge [2] |
| --- | --- | --- | --- |
| O=Cc1c[nH]c2ccccc12 [IALD, indole-3-aldehyde] | significant bodyweight loss | shortening of the colon length | – |
| OVA: albumin (OVA) protein, unformulated allergen given orally as OIT comparator (protein, UniProt P01012 2-386, looked up) Ovalbumin: GSIGAASMEFCFDVFKELKVHHANENIFYCPIAIMSALAMVYLGAKDSTRTQINKVVRFDKLPGFGDSIEAQCGTSVNVHSSLRDILNQITKPNDVYSFSLASRLYAEERYPILPEYLQCVKELYRGGLEPINFQTAADQARELINSWVESQTNGIIRNVLQPSSVDSQTAMVLVNAIVFKGLWEKAFKDEDTQAMPFRVTEQESKPVQMMYQIGLFRVASMASEKMKILELPFASGTMSMLVLLPDEVSGLEQLESIINFEKLTEWTSSNVMEERKIKVYLPRMKMEEKYNLTSVLMAMGITDVFSSSANLSGISSAESLKISQAVHAAHAEINEAGREVVGSAEAGVDAASVSEEFRADHPFLFCIKHIATNAVLFFGRCVSP | – | – | Some mice in the OVA group died |
